Laboratory results as given in patent publication US11806401B2, “Prevention of drug-induced atrio-ventricular block” (SignPath Pharma Inc., priority 2016, dated 2023).
Values belong to the compound of their own block, whether it stands above or below them.

Assays:
[1] = tested on: normal subjects and cancer patients; test: Phase 1a and 1b clinical studies of liposomal curcumin (14:0 lyso PG); type: in vivo, human
Excerpt: To date, 45 normal subjects and 28 cancer patients have been tested in Phase 1a and 1b (ongoing) studies, respectively.

[2] = Prevention of drug-induced QTc prolongation in regulatory-validated preclinical models; type: in vivo; settings: against Moxifloxacin; Nilotinib; Crizotinib; Sotalol; Curcumin; Nifedipine; Lovastatin; Thioridazine; Amiodarone; Terfenadine; E4031; Felbamate; Gilenya; Quizartinib (AC220); Forskolin; Turmerone
guinea pigs [3] = test: Effect of Fingolimod, verapamil and 14:0 lyso PG on PR intervals / AV block in instrumented guinea pigs; type: in vivo, guinea pig
Experimental: PR intervals were measured following the infusion of Fingolimod. Measurements of PR were stopped when the P wave disconnected from the QRS complexes, indicating 3rd degree AV block.
Fingolimod was administered by intravenous infusion to instrumented guinea pigs at doses ranging from 3 μg/kg to 300 μg/kg (n=6, green series, above). The intravenous route of administration was selected because it simplified the pharmacokinetics of this multi-drug experiment.
Again, the intravenous route of administration for both drugs was selected to simplify the kinetics of the experiment.

guinea pigs [4] = test: Effect of Fingolimod, verapamil and 14:0 lyso PG on QTc interval in instrumented guinea pigs; type: in vivo, guinea pig
guinea pigs [5] = test: Effect of single oral doses of Moxifloxacin on QTc interval of instrumented guinea pigs, without or with 14:0 lyso PG; type: in vivo, guinea pig
[6] = tested on: clinical volunteers and patients; settings: cited from earlier work
IKr = IKr (Homo sapiens, UniProt Q12809); settings: cited from earlier work
Chain of IKr (Q12809 whole entry): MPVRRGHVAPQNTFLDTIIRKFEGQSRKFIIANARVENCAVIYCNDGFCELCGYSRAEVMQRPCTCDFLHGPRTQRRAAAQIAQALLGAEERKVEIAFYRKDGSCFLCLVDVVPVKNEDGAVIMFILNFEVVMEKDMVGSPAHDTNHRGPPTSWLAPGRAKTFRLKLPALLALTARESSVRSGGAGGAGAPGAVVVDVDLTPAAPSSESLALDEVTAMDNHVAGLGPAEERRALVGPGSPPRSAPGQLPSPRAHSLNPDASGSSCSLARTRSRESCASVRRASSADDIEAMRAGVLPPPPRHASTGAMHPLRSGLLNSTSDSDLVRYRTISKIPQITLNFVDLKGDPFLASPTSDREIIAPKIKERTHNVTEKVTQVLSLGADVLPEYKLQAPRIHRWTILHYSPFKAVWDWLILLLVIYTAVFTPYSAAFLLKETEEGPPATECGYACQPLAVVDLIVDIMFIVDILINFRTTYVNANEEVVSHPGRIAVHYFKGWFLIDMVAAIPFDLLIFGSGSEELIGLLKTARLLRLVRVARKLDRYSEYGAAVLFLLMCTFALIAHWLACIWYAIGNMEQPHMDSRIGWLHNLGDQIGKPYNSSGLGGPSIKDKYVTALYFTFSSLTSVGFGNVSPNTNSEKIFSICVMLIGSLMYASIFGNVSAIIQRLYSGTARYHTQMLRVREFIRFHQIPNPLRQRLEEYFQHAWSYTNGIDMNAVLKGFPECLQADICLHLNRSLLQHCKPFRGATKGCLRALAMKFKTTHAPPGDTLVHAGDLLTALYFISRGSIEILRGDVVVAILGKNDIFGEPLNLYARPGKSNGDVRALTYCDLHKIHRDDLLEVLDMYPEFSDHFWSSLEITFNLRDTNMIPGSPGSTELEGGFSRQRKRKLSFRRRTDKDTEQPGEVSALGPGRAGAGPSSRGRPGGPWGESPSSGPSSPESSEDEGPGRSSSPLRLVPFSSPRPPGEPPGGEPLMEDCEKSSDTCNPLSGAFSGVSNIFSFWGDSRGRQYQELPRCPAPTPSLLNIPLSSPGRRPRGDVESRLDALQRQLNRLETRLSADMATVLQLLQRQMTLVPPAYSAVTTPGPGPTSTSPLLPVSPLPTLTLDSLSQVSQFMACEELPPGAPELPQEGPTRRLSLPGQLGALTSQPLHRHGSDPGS

[7] = 14:0 lyso PG given orally prior to Fingolimod and/or verapamil
[8] = 0.5 mg/kg verapamil i.v. 60 minutes before Fingolimod infusion
[9] = intravenous infusion of Fingolimod alone
[10] = oral 1.0 mg/kg 14:0 lyso PG, then verapamil, then Fingolimod infusion

Compound: CCCCCCCCCCCCCC(=O)OC[C@@H](O)COP(=O)(O)OCC(O)CO (mixture of isomers) [14:0 lyso PG, 1-myristoyl-2-hydroxy-sn-glycero-3-phospho-(1′-rac-glycerol)]
adverse effects ([1]; exposure levels used in the curcumin Phase 1a and Phase 1b clinical trials): devoid of adverse effects | clinical efficacy against curcumin: QT and QTc interval prolongation ([1]; ongoing Phase 1b study, human patients): preventing QT and QTc interval prolongation | tolerability in clinical trials ([1]; orally-administered): well-tolerated | QTc prolongation by other drugs [2]: prevents | right-shift of the appearance of 3rd-degree AV block compared to Fingolimod alone (guinea pigs [3]; [7]): 13 fold | right-shift of the appearance of 3rd-degree AV block compared to animals receiving both Fingolimod and verapamil (guinea pigs [3]; [7]): 6.6 fold | change in cardiac electrophysiology (guinea pigs [4]; guinea pig, in vivo, po, 1 mg/kg): no change in cardiac electrophysiology | QTc prolongation for any given dose of Fingolimod relative to verapamil+Fingolimod animals (guinea pigs [4]; oral 1.0 mg/kg 14:0 lyso PG, then 0.5 mg/kg verapamil i.v. at 60 min, Fingolimod i.v. at 120 min): ⅓ | Maximum Tolerated Dose (MTD) (guinea pigs [4]; oral gavage formulation): greater than the highest achievable dose in the oral formulation | changes in QTc (guinea pigs [5]; concomitant oral 14:0 lyso PG with Moxifloxacin, 14:0 lyso PG:Moxifloxacin ratio 0.45:1, n=6): no, or very little, changes in QTc | shift in the QTc-dose response of Moxifloxacin (guinea pigs [5]; concomitant oral 14:0 lyso PG, ratio 0.45:1): statistically significant right-shift

Fingolimod dose at 1st-degree AV block (guinea pigs [3]; [8]): 0.007 mg/kg | Fingolimod dose at 3rd-degree dissociation between P waves and QRS complexes (guinea pigs [3]; [8]): 0.045 mg/kg | Fingolimod dose at Mobitz-Type-1 2nd degree AV block (guinea pigs [3]; [8]): 0.01 mg/kg | Fingolimod dose at 1st degree AV block (guinea pigs [3]; [9]): 0.015 mg/kg | Fingolimod dose at 3rd degree AV block (guinea pigs [3]; [9]): 0.023 mg/kg | Fingolimod dose at Mobitz Type-1, 2nd-degree AV block (guinea pigs [3]; [9]): 0.02 mg/kg | Fingolimod dose at 1st-degree AV block (guinea pigs [3]; oral 1.0 mg/kg 14:0 lyso PG, 0.5 mg/kg verapamil i.v. 60 min later, Fingolimod infusion 60 min post-verapamil): 0.2 mg/kg | Fingolimod dose at P-QRS dissociation, in the rest of the animals in the cohort (guinea pigs [3]; [10]): 0.3 mg/kg | Fingolimod dose at P-QRS dissociation, in the two animals with Mobitz-Type-2 AV block (guinea pigs [3]; [10]): 0.051 mg/kg | animals with Mobitz-Type-2 AV block (guinea pigs [3]; [10]): 2 out of 6 | changes in PR intervals (guinea pigs [3]; oral 1.0 mg/kg 14:0 lyso PG, then verapamil, then Fingolimod infusion, up to a dose of 200 μg/kg): modest changes in PR intervals
Compound: CCCCCCCCc1ccc(CCC(N)(CO)CO)cc1 [Fingolimod]
AV block in human patients ([6]; Full Prescribing Information, Novartis): produce AV block from the first dose | QT/QTc prolongation ([6]; administered alone in healthy, naive animals and clinical volunteers): limited QT/QTc prolongation | QTc intervals ([6]; clinical patients taking verapamil along with Fingolimod): severely prolonged QTc intervals | delays in repolarization ([6]; therapeutic doses, in a pair of individuals (EMA Assessment Report)): 60 ms | IKr inhibition (IKr): approximately 64%
